Source: patent publication US20070225388A1, “Porous Bodies and Method of Production Thereof” (priority 2004, published 2007)

Test: Dispersion of material on exposure to aqueous medium (visual)
Type: physicochemical
Details: dye not incorporated into a porous body

CCNc1ccc2ccccc2c1N=Nc1ccc(N=Nc2ccccc2)cc1 [Fat red 7B dye]
dispersion or solubility of the dye alone in water: particles of dye remained at the bottom of the vessel
